Laboratory results published in PubChem BioAssay (NCI).
Several values for one entry are separate records, joined by “and”; a condition that tells them apart may be missing. Equal values may be shown once.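 48-hour exposure; five concentrations; linearly interpolated endpoints. GI50 is the concentration that inhibits growth by half. TGI is the concentration that stops growth completely.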

How the values were obtained:
Assay in all cases: DTP human tumour cell line panel, 48 h
A549 NSCLC = system: A549 NSCLC
ACHN renal = system: ACHN renal
CAKI-1 renal = system: CAKI-1 renal
EKVX NSCLC = system: EKVX NSCLC
MCF7 breast = system: MCF7 breast
MDA-MB-435 = system: MDA-MB-435
SK-MEL-5 melanoma = system: SK-MEL-5 melanoma
SK-OV-3 ovarian = system: SK-OV-3 ovarian
SR leukemia = system: SR leukemia
T-47D breast = system: T-47D breast

Row | SMILES | TGI (A549 NSCLC) | TGI (ACHN renal) | TGI (CAKI-1 renal) | TGI (EKVX NSCLC) | TGI (MCF7 breast) [µM] | TGI (MDA-MB-435) [µM] | TGI (SK-MEL-5 melanoma) | TGI (SK-OV-3 ovarian) | TGI (SR leukemia) | GI50 (ACHN renal) [µM] | GI50 (CAKI-1 renal) [µM] | GI50 (EKVX NSCLC) [µM] | GI50 (MCF7 breast) [µM] | GI50 (SK-OV-3 ovarian) [µM] | GI50 (SR leukemia) [µM] | TGI (T-47D breast) [µM]
1 | S=c1c2cn[nH]c2nc2scc(-c3ccc(Cl)cc3)n12 | 30.5 µM | 27 µM | 24.6 µM | 49.1 µM | 36.3 | 15.7 | > 100 µM | > 100 µM | 28.9 µM |  |  |  |  |  |  | 
2 | COc1cnc2c(c1)C(=O)c1c-2n(CCCN2CCOCC2)c(=O)c2cc(Cl)ccc12 |  | > 100 µM | > 100 µM | > 100 µM | > 100 |  |  | > 100 µM | > 100 µM | 0.332 | 0.342 | > 100 | 0.0959 | 0.397 | 0.0797 | 
3 | CC(=NNC(=S)Nc1ccccc1)c1cccc(C(C)=NNC(=S)Nc2ccccc2)n1 | > 46.4 µM | 6.86 µM | > 22.9 µM | > 100 µM | > 30.7 | > 100 | > 40.1 µM | > 84.5 µM |  |  |  |  |  |  |  | > 100
4 | Cc1c(O)nc(-n2[nH]c3c(c2=O)CCCC3)[nH]c1=O |  | > 100 µM | > 100 µM | > 100 µM |  | > 100 | > 100 µM | > 100 µM | > 100 µM |  |  |  |  |  |  | > 100
5 | CCOS(C)(=O)=O | > 100 µM | > 100 µM | > 100 µM | > 100 µM | > 100 | > 100 | > 100 µM | > 100 µM |  |  |  |  |  |  |  | > 100
6 | CCOC(=O)N1CCC(N[C@@H]2c3cc4c(cc3C(c3cc(OC)c(O)c(OC)c3)C3C(=O)OC[C@@H]32)OCO4)CC1 (stereo partly specified) | 1.44 µM and 5.01 µM | 1.63 µM and 1.86 µM | 2.35 µM and 2.26 µM | 4.86 µM and 7.1 µM |  |  | 5.71 µM and 5.32 µM | 4.6 µM and 4.45 µM | 3.21 µM and > 25 µM |  |  |  |  |  |  | 
7 | COc1cc2c(cc1OC)C(C(c1ccccc1)c1ccccc1)N(C)CC2 (stereo unspecified) | > 100 µM |  | > 100 µM | > 100 µM | > 100 |  | 47.6 µM | > 100 µM |  |  |  |  |  |  |  | 
8 | CCOC(=O)c1c(-c2ccc(O)c(OC)c2)c(C#N)c(=S)n(C2OC(CO)C(O)C(O)C2O)c1-c1ccccc1 (stereo unspecified) | > 100 µM | > 100 µM | > 100 µM | > 100 µM | > 100 | > 100 | > 100 µM |  | > 100 µM |  |  |  |  |  |  | 
9 | Cn1c(SCc2ccc(F)cc2)nnc1C12CC3CC(CC(C3)C1)C2 | > 100 µM | > 100 µM | > 100 µM | > 100 µM |  | 61.7 | 26.6 µM | > 100 µM | 93.9 µM |  |  |  |  |  |  | > 100
10 | COC(C)(C)C1(O)CC[C@@H](C)CC1=O (stereo partly specified) | > 100 µM | > 100 µM | > 100 µM | > 100 µM | > 100 | > 100 | > 100 µM | > 100 µM | > 100 µM |  |  |  |  |  |  | 
11 | N[C@@H](Cc1ccccc1)C(=O)N1CCC[C@@H]1P(=O)(Oc1ccccc1)Oc1ccccc1 | > 100 µM | > 100 µM | > 100 µM | > 100 µM | > 100 | > 100 | > 100 µM | > 100 µM |  |  |  |  |  |  |  | > 100
12 | CSC1=N/C(=C\c2ccc(C)cc2)C(=O)N1CN1CCCCC1 | > 100 µM | > 100 µM |  | > 100 µM | > 100 | > 100 | > 100 µM | > 100 µM | > 100 µM |  |  |  |  |  |  | 
13 | COc1cccc(N2C(Cl)C(=O)C2c2c[nH]c3ccccc23)c1 (stereo unspecified) | > 100 µM |  |  | > 100 µM |  |  | > 100 µM | > 100 µM | > 100 µM |  |  |  |  |  |  | 
14 | O=C1CC2(CCC(O)(c3ccc4ccccc4c3)C(C(=O)c3ccc4ccccc4c3)C2)C(=O)c2ccccc2N1 (stereo unspecified) | > 100 µM |  | > 100 µM | > 100 µM | > 100 | > 100 | > 100 µM | > 100 µM | > 100 µM |  |  |  |  |  |  | > 100
15 | O=C1OCC/C1=N/O | > 100 µM | > 100 µM |  | > 100 µM |  |  | > 100 µM | > 100 µM | > 100 µM |  |  |  |  |  |  | 
16 | CCNC(=S)NNC(=O)C12CC3CC(CC(C3)C1)C2 | > 100 µM | > 100 µM | > 100 µM |  | > 100 | > 100 | > 100 µM | > 100 µM |  |  |  |  |  |  |  | > 100
17 | O=C(O)[C@H]1CCCN1CP(=O)(O)CN1CCC[C@@H]1C(=O)O | > 100 µM | > 100 µM | > 100 µM | > 100 µM | > 100 | > 100 | > 100 µM | > 100 µM |  |  |  |  |  |  |  | > 100
18 | CCOc1cc(/C=C2/C(C)=NN(c3cccc(Cl)c3)/C2=N/c2nc3ccccc3s2)ccc1O |  | 63.6 µM |  | > 100 µM | 81.8 |  | 40.2 µM | 70.5 µM | 81.1 µM |  |  |  |  |  |  | > 100
19 | COc1ccc(CCN(C)C2CCC(C#N)(c3ccc(OC)c(OC)c3)CC2)cc1OC (stereo unspecified) | > 100 µM | > 100 µM |  | > 100 µM |  |  | > 100 µM | > 100 µM | > 100 µM |  |  |  |  |  |  | 
20 | COc1cc(OC)cc(C(=O)CC(=O)c2cc(OC)cc(OC)c2)c1 | > 100 µM | > 100 µM |  | > 100 µM | > 100 | > 100 | > 100 µM | > 100 µM | > 100 µM |  |  |  |  |  |  | > 100
21 | O=C1c2ccccc2C(=O)N1n1c(Cc2ccc([N+](=O)[O-])cc2)n[nH]c1=O | > 100 µM | > 100 µM | > 100 µM |  | > 100 | > 100 | > 100 µM |  | > 100 µM |  |  |  |  |  |  | > 100
22 | On1c(-c2ccccc2)c(-c2ccccc2N2CCCC2)c2ccccc21 | > 100 µM | > 100 µM | > 100 µM | > 100 µM |  |  | > 100 µM | > 100 µM | > 100 µM |  |  |  |  |  |  | 
23 | CCCCCCCCCCCC[S+](C)C | 26.1 µM | 19.4 µM | 10.3 µM | 20.2 µM | 24.5 |  | 9.25 µM | 21.7 µM | > 100 µM |  |  |  |  |  |  | 3.37
24 | C[N+](C)([O-])CCOc1cc2c(c3ccccc13)-c1ccccc1C2=O | 54.6 µM |  | 61.9 µM | 64.7 µM | > 100 |  | 28.7 µM | > 100 µM |  |  |  |  |  |  |  | 
25 | O=C1C=C/C(=N\N=C(c2ccccc2)c2ccccc2)O1 | > 10 µM |  | > 10 µM | > 10 µM | > 10 | > 10 | > 10 µM | > 10 µM | > 10 µM |  |  |  |  |  |  | > 10
